Source: PubChem BioAssay AID180 (DTP/NCI, 2004)
“And” between values parts separate entries of the source, which are not always exact repeats. Equal entries are not always repeated.

Test system: BDF1 mice, Adenocarcinoma 755 s.c., tumor weight T/C
Assay: NCI In Vivo Anticancer Drug Screen. Data for tumor model Adenocarcinoma 755 (subcutaneous) in B6D2F1 (BDF1) mice
Settings: endpoint: mean tumor weight, schedule: Q01DX011 (ip), higher = larger tumour
Summary of the method: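 Compound activity was tested in mice carrying transplanted tumors. Survival or tumor size was measured, and each value is the treated-group measurement divided by that of the vehicle-treated control group (T/C).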

[1] = dose: 25.0 mg/kg/injection, vehicle: methylcellulose (MC)
[2] = dose: 75.0 mg/kg/injection, vehicle: methylcellulose (MC)
[3] = dose: 225.0 mg/kg/injection, vehicle: methylcellulose (MC)
[4] = dose: 125.0 mg/kg/injection, vehicle: carboxymethylcellulose (CMC)
[5] = dose: 60.0 mg/kg/injection, vehicle: carboxymethylcellulose (CMC)
[6] = dose: 125.0 mg/kg/injection, vehicle: methylcellulose (MC)

For `O=c1[nH]cnc2c1ncn2CCCl`, the T/C [1] was 195 % of control, the T/C [2] was 150 % of control and the T/C [3] was 120 % of control.

`S=c1c2[nH]cnc2ncn1CCSC1=NC=NC2=NC=NC21` (configuration not stated) was tested, and the T/C (dose: 4.0 mg/kg/injection, vehicle: methylcellulose (MC)) was 61 % of control, the T/C (dose: 8.0 mg/kg/injection, vehicle: methylcellulose (MC)) was 71 % of control and the T/C (dose: 16.0 mg/kg/injection, vehicle: methylcellulose (MC)) was 19 % of control.

For `Cn1cnc2nc[nH]c2c1=O`, the T/C (dose: 31.2 mg/kg/injection, vehicle: carboxymethylcellulose (CMC)) was 95 % of control, the T/C (dose: 62.5 mg/kg/injection, vehicle: carboxymethylcellulose (CMC)) was 99 % of control and the T/C [4] was 108 % of control. For the same compound, the T/C (dose: 250.0 mg/kg/injection, vehicle: carboxymethylcellulose (CMC)) was 116 % of control.

`CC1CC(C)C(=O)C(C(=O)CC2CC(=O)NC(=O)C2)C1` (configuration not stated) was tested, and the T/C [4] was 67 % of control.

For `Nc1ncc2[nH]c(N)nc2n1`, the T/C [1] was 58 % of control and the T/C [2] was 73 % of control.

In the case of `CC(C)Cn1cnc2c(SCCCc3ccccc3)nc(N)nc21`, the T/C [1] is reported as 72 % of control, the T/C (dose: 50.0 mg/kg/injection, vehicle: methylcellulose (MC)) is reported as 39 % of control and the T/C (dose: 100.0 mg/kg/injection, vehicle: methylcellulose (MC)) is reported as 10 % of control. For the same compound, the T/C (dose: 200.0 mg/kg/injection, vehicle: methylcellulose (MC)) was 8 % of control.

`Nc1nc(Br)c2[nH]cnc2n1` was tested, and the T/C [5] was 1 % of control.

`CN(C)[C@@H]1C(=O)C(C(=O)NCNC2(C(=O)O)CCCC2)=C(O)[C@@]2(O)C(=O)C3=C(O)c4c(O)cccc4[C@@](C)(O)[C@H]3C[C@@H]12` was tested, and the T/C (dose: 50.0 mg/kg/injection, vehicle: saline) was 77 % of control, the T/C (dose: 75.0 mg/kg/injection, vehicle: saline) was 65 % of control and the T/C (dose: 125.0 mg/kg/injection, vehicle: saline) was 41 % of control. For the same compound, the T/C (dose: 250.0 mg/kg/injection, vehicle: saline) was 1 % of control.

In the case of `c1ccc2[nH]cnc2c1`, the T/C (dose: 38.5 mg/kg/injection, vehicle: carboxymethylcellulose (CMC)) is reported as 74 % of control, the T/C (dose: 40.0 mg/kg/injection, vehicle: carboxymethylcellulose (CMC)) is reported as 93 % of control and the T/C (dose: 43.5 mg/kg/injection, vehicle: carboxymethylcellulose (CMC)) is reported as 116 % of control. For the same compound, the T/C (dose: 62.5 mg/kg/injection, vehicle: methylcellulose (MC)) was 60 % of control, the T/C (dose: 77.0 mg/kg/injection, vehicle: carboxymethylcellulose (CMC)) was 62 % of control and the T/C (dose: 80.0 mg/kg/injection, vehicle: carboxymethylcellulose (CMC)) was 72 % of control. The T/C (dose: 87.0 mg/kg/injection, vehicle: carboxymethylcellulose (CMC)) was 110 % of control, the T/C (dose: 123.2 mg/kg/injection, vehicle: carboxymethylcellulose (CMC)) was 41 % of control and 57 % of control and the T/C [6] was 88 % of control. The T/C (dose: 160.0 mg/kg/injection, vehicle: carboxymethylcellulose (CMC)) was 105 % of control, the T/C (dose: 174.0 mg/kg/injection, vehicle: carboxymethylcellulose (CMC)) was 101 % of control and the T/C (dose: 205.33 mg/kg/injection, vehicle: carboxymethylcellulose (CMC)) was 77 % of control and 82 % of control. For the same compound, the T/C (dose: 250.0 mg/kg/injection, vehicle: methylcellulose (MC)) was 118 % of control, the T/C (dose: 320.0 mg/kg/injection, vehicle: carboxymethylcellulose (CMC)) was 123 % of control and the T/C (dose: 348.0 mg/kg/injection, vehicle: carboxymethylcellulose (CMC)) was 76 % of control.

With `Nc1nc2c(nc(Br)n2C2OC(CO)C(O)C2O)c(=O)[nH]1` (configuration not stated) the T/C (dose: 30.0 mg/kg/injection, vehicle: carboxymethylcellulose (CMC)) was 82 % of control, the T/C [5] was 43 % of control and the T/C (dose: 120.0 mg/kg/injection, vehicle: carboxymethylcellulose (CMC)) was 17 % of control.

`Nc1ccc(C(=O)O)c(O)c1` was tested, and the T/C (dose: 37.88 mg/kg/injection, vehicle: carboxymethylcellulose (CMC)) was 56 % of control, the T/C (dose: 43.25 mg/kg/injection, vehicle: carboxymethylcellulose (CMC)) was 55 % of control and the T/C (dose: 75.75 mg/kg/injection, vehicle: carboxymethylcellulose (CMC)) was 101 % of control. The T/C (dose: 86.5 mg/kg/injection, vehicle: carboxymethylcellulose (CMC)) was 75 % of control, the T/C (dose: 141.17 mg/kg/injection, vehicle: carboxymethylcellulose (CMC)) was 157 % of control and the T/C (dose: 151.5 mg/kg/injection, vehicle: carboxymethylcellulose (CMC)) was 104 % of control. For the same compound, the T/C (dose: 173.0 mg/kg/injection, vehicle: carboxymethylcellulose (CMC)) was 75 % of control, the T/C (dose: 303.0 mg/kg/injection, vehicle: carboxymethylcellulose (CMC)) was 71 % of control and the T/C (dose: 346.0 mg/kg/injection, vehicle: carboxymethylcellulose (CMC)) was 82 % of control.

For `CCCCn1nnc2c(N)nc(N)nc21`, the T/C (dose: 62.0 mg/kg/injection, vehicle: methylcellulose (MC)) was 123 % of control, the T/C [6] was 70 % of control and the T/C [3] was 56 % of control.
